US5795882A, “Method of treating prostatic diseases using delayed and/or sustained release vitamin D formulations” (Bone Care International, Inc., priority 1996, dated 1998)

How the values were obtained:
prostate VDR = target: T1, prostate VDR (Homo sapiens, UniProt P11473); test: Prostate cell VDR binding; details: 0.01-100 nM versus 1 nM 3H-1α,25-(OH)2 D3, 16-20 hrs, 4° C.
T1 sequence (P11473 1-427): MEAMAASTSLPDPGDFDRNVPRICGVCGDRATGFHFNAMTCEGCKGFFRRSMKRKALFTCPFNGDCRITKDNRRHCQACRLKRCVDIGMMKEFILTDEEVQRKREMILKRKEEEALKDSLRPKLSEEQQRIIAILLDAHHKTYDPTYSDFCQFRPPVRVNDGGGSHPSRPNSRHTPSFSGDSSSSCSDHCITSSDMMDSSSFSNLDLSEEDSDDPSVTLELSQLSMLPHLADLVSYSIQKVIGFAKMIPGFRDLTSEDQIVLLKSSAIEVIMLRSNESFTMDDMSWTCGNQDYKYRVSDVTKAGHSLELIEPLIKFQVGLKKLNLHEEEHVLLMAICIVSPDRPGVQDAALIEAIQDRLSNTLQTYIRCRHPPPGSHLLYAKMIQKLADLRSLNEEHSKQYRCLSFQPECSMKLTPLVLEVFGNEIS
Protocol: Prostate-derived cell lines are cultured to near confluence, washed and harvested by scraping. Cells are washed by centrifugation, and the cell pellet resuspended in a buffered salt solution containing protease inhibitors. The cells are disrupted by sonication while cooling on ice. The supernatant obtained from centrifuging the disrupted cells at 207,000×g for 35 min at 4° C. is assayed for binding. 200 μL of soluble extract, (1-2 mg protein/ml supernatant) is incubated with a 1 nM ^3 H-1α,25-(OH)2 D3 and increasing concentrations of 1α,24-(OH)2 -D2 (0.01-100 nM) for 16-20 hrs at 4° C. Bound and free hormones are separated with hydroxylapatite using standard procedures. Specific binding is calculated by subtracting nonspecific binding obtained in the presence of a 250-fold excess of nonradioactive 1α,25-(OH)2 D3 from the total binding measured.
The procedure of Example 16 is repeated using the active vitamin D analogue 1α,24-dihydroxyvitamin D4, and the specific binding is determined.
The procedure of Example 16 is repeated using the active vitamin D analogue 1α,25-dihydroxyvitamin D4, and the specific binding is determined.

LNCaP [1] = test: Inhibition of prostate cell proliferation, LNCaP; assay type: cell-based, human; details: 10^-11 to 10^-7 M, 6-7 days
Protocol: (§1) The cell lines, LNCaP and PC-3, which are derived from human prostate adenocarcinoma, are seeded in six-well tissue culture plates at a density of about 50,000 cells/plate. After the cells have attached and stabilized, about 2-3 days, the medium is replenished with medium containing vehicle or the active vitamin D analogue, 1α,24-(OH)2 D2, at concentrations from 10^-11 to 10^-7 M. Medium containing test analogue or vehicle is replaced every three days. After 6-7 days, the medium is removed, and the cells are rinsed, precipitated with cold 5% trichloroacetic acid, and washed with cold ethanol. The cells are solubilized with 0.2N sodium hydroxide, and the amount of DNA determined by standard procedures.
(§2) The procedure of Example 19 is repeated using the active vitamin D analogue 1α,24-(OH)2 D4, and the cell number is determined.
(§3) The procedure of Example 19 is repeated using the active vitamin D analogue 1α,25-(OH)2 D4, and the cell number is determined.

PC-3 = test: Inhibition of prostate cell proliferation, PC-3; assay type: cell-based, human; details: PC-3, 10^-11 to 10^-7 M, 6-7 days
Protocol: as §1, §2, §3

LNCaP [2] = test: Stimulation of prostate cell differentiation (PSA), LNCaP; assay type: cell-based, human; details: 10^-11 to 10^-7 M, 6-7 days
Protocol: Using the techniques of Skowronski et al., 132 Endocrinology (1993) 1952-1960 and 136 Endocrinology (1995) 20-26, both of which are incorporated herein by reference, cells of the cell line, LNCaP, which is derived from a human metastatic prostate adenocarcinoma and known to express PSA, are seeded in six-well tissue culture plates at a density of about 50,000 cells/plate. After the cells have attached and stabilized, about 2-3 days, the medium is replenished with medium containing vehicle or the active vitamin D analogue, 1α,24-(OH)2 D2, at concentrations from 10^-11 to 10^-7 M. After 6-7 days, the medium is removed and stored at -20° C. for prostate specific antigen (PSA) analysis.
The cells are rinsed, precipitated, and the amount of DNA determined by standard procedures. The cells are resuspended, and the cell number determined. PSA is measured by standard known methods.
The procedure of Example 22 is repeated except the active vitamin D analogue is 1α,24-(OH)2 D4.
The procedure of Example 22 is repeated except the active vitamin D analogue is 1α,25-(OH)2 D4.

[3] = In vitro thermal conversion of 1α-hydroxyprevitamin D to 1α-hydroxyvitamin D; assay type: physicochemical; details: in ethanol, 37° C.
Protocol: A series of experiments were conducted which address the in vitro conversion of previtamin to vitamin for three 1α-hydroxyprevitamin D's: 1α-hydroxyprevitamin D2, 1α,24-dihydroxyprevitamin D2 and 1α-hydroxyprevitamin D3. Each 1α-hydroxyprevitamin D was dissolved in ethanol, incubated at 37° C. in a water bath, and samples taken at two-hour intervals. An analytical HPLC separation was performed on each sample to quantify the thermal conversion of the previtamin to the vitamin form. The data collected were normalized to account for the presence of any vitamin form in the initial formulation (≤10%). The results are presented in FIG. 1 which is a plot of % previtamin versus time in hours. Linear regression lines were generated for each previtamin.

[4] = Oral bioavailability of 1α,24-(OH)2 preD2 in normal rats (Example 2); assay type: in vivo, rat
Protocol: In this experiment, normal rats maintained on a normal diet were assigned randomly to treatment and control groups. The rats were orally administered single doses of 1α,24-(OH)2 preD2 in a fractionated coconut oil (FCO) (1.5 μg, which was approximately 7.5 μg/kg). The control group received only the vehicle. For both groups, blood was obtained at 6 hours postdosing and analyzed for serum levels of the vitamin form, 1α,24-dihydroxyvitamin D2.

Vitamin D Receptor = target: T2, Vitamin D Receptor (Homo sapiens, UniProt P11473); test: VDR competitive binding assay (Examples 6-8); details: in words; Examples 7 and 8 versus the vitamin form
T2 sequence (P11473 1-427): T1 sequence (P11473 1-427)

[5] = tested on: advanced androgen-independent prostate cancer; test: Clinical study in advanced androgen-independent prostate cancer; assay type: in vivo, human; details: for progression of metastatic disease (CAT scans, x-rays, bone scans): two years
Excerpt: Patients with advanced androgen-independent prostate cancer participate in an open-labeled study of 1α,24-(OH)2 preD2. […] On admission to the study , patients begin a course of therapy with oral 1α,24-(OH)2 preD2 lasting 26 weeks, while discontinuing any previous use of calcium supplements, vitamin D supplements, and vitamin D hormone replacement therapies. During treatment, the patients are monitored at regular intervals for: (1) hypercalcemia, hyperphosphatemia, hypercalciuria, hyperphosphaturia and other toxicity; (2) evidence of changes in the progression of metastatic disease; and (3) compliance with the prescribed test drug dosage.
The study is conducted in two phases. During the first phase, the maximal tolerated dosage (MTD) of daily oral 1α,24-(OH)2 preD2 is determined by administering progressively higher dosages to successive groups of patients. All doses are administered in the morning before breakfast. The first group of patients is treated with 25 μg of 1α,24-(OH)2 preD2. Subsequent groups of patients are treated with 50, 75 and 100 μg/day. Dosing is continued uninterrupted for the duration of the study unless serum calcium exceeds 11.6 mg/dL or other toxicity of grade 3 or 4 is observed, in which case dosing is held in abeyance until resolution of the observed toxic effect(s) and then resumed at a level which has been decreased by 10.0 μg.
During the second phase, patients are treated with 1α,24-(OH)2 preD2 for 24 months at 0.5 and 1.0 times the MTD.
The study of Example 25 is repeated for the active vitamin D compound, 1α,25-(OH)2 D2 in DSR form.

[6] = Comparison of oral bioavailability in rachitic rats (Example 5); assay type: in vivo, rat; details: rat, in vivo, 0.0015 mg/kg, 12 h after single oral dose 0.255 μg (approximately 1.5 μg/kg) in fractionated coconut oil, n=6, ± SD, ** p < 0.01 relative to 1α,25(OH)2 D3, read-out: Serum 1α,25-(OH)2 D3
Protocol: Three-week-old rats were maintained on a vitamin D-deficient diet containing normal levels of calcium and phosphorus for 3-6 weeks until marked hypocalcemia was observed. […] A control group received only the vehicle. For all treatment groups, blood was obtained at 12 hours postdosing, and analyzed for serum levels of the vitamin form.

leukemia cells = details: by inducing differentiation to nonmalignant macrophages; cited from earlier work
[7] = in vivo; cited from earlier work
malignant cells = details: cited from earlier work
[8] = tested on: prostate cancer cell lines; details: cited from earlier work
luteinizing hormone (LH) = details: cited from earlier work

C=C1/C(=C\C=C2/CCC[C@]3(C)[C@@H]([C@H](C)/C=C/C(C)(O)C(C)C)CC[C@@H]23)C[C@@H](O)C[C@@H]1O (stereo partly drawn) [1α,24-(OH)2 D2, 1α,24-dihydroxyvitamin D2]
affinity for prostate VDR (prostate VDR): strong affinity for prostate VDR
number of cells versus control cultures (LNCaP [1]): significantly fewer cells than the control cultures
number of cells versus control cultures (PC-3): significantly fewer cells than the control cultures
PSA (mass of PSA/cell) versus control cultures (LNCaP [2]): significantly more PSA than control cultures

C=C1/C(=C\C=C2/CCC[C@]3(C)[C@@H]([C@H](C)CCC(C)(O)C(C)C)CC[C@@H]23)C[C@@H](O)C[C@@H]1O (stereo partly drawn) [1α,24-(OH)2 D4, 1α,24-dihydroxyvitamin D4]
affinity for prostate VDR (prostate VDR): strong affinity for prostate VDR
number of cells versus control cultures (LNCaP [1]): significantly fewer cells than the control cultures
number of cells versus control cultures (PC-3): significantly fewer cells than the control cultures
PSA (mass of PSA/cell) versus control cultures (LNCaP [2]): significantly more PSA than control cultures

CC1=C(/C=C\C2=CCC[C@]3(C)[C@@H]([C@H](C)/C=C/C(C)(O)C(C)C)CC[C@@H]23)C[C@@H](O)C[C@@H]1O (stereo partly drawn) [1α,24-(OH)2 preD2, 1α,24-dihydroxyprevitamin D2]
half-life [3]: 732 min
oral bioavailability (increased circulating 1α,24-(OH)2 D2) [4]: bioavailable
VDR binding affinity (Vitamin D Receptor): substantially less affinity for the receptor than does its vitamin form
bone pain associated with metastatic disease ([5]; patients treated with the MTD for at least six months): significantly diminished
circulating levels of 1α,25-(OH)2 D3 ([5]; patients, daily oral): suppressed, often to undetectable levels
levels of circulating 1α,24-(OH)2 D2 versus dosage ([5]; patients, daily oral): increase proportionately with the dosage administered
serum and urine calcium ([5]; patients, daily oral): elevated in a dose responsive manner
maximal tolerated dosage (MTD) ([5]; patients, daily oral, first phase): above 20.0 μg/day
progression of metastatic disease (CAT scans, x-rays, bone scans) ([5]; higher dosage (1.0 times the MTD)): partial or complete remission
progression of metastatic disease (CAT scans, x-rays, bone scans) ([5]; lower dosage (0.5 times the MTD)): stable disease or partial remission

CC1=C(/C=C\C2=CCC[C@]3(C)[C@@H]([C@H](C)CCC(C)(O)C(C)C)CC[C@@H]23)C[C@@H](O)C[C@@H]1O (stereo partly drawn) [1α,24-(OH)2 preD4, 1α,24-dihydroxyprevitamin D4]
VDR binding affinity (Vitamin D Receptor): substantially less affinity for the receptor than does its vitamin form

C=C1/C(=C\C=C2/CCC[C@]3(C)[C@@H]([C@H](C)CCCC(C)(C)O)CC[C@@H]23)C[C@@H](O)C[C@@H]1O [1α,25-(OH)2 D3, 1α,25-dihydroxyvitamin D3]
concentration at 12 h [6]: 0.327 ± 0.192 ng/mL
antileukemic activity (leukemia cells): potent antileukemic activity
risk of hypercalcemia limiting clinical use as anti-cancer agent [7]: precluded, or severely limited, by the risk of hypercalcemia
growth and differentiation of malignant cells (malignant cells): regulate growth and promote the differentiation of many malignant cells
antiproliferative and differentiating actions [8]: Antiproliferative and differentiating actions

C=C1/C(=C\C=C2/CCC[C@]3(C)[C@@H]([C@H](C)CC[C@H](C)C(C)(C)O)CC[C@@H]23)C[C@@H](O)C[C@@H]1O [1α,25-(OH)2 D4, 1α,25-dihydroxyvitamin D4]
affinity for prostate VDR (prostate VDR): strong affinity for prostate VDR
number of cells versus control cultures (LNCaP [1]): significantly fewer cells than the control cultures
number of cells versus control cultures (PC-3): significantly fewer cells than the control cultures
PSA (mass of PSA/cell) versus control cultures (LNCaP [2]): significantly more PSA than control cultures

C=C1/C(=C\C=C2/CCC[C@]3(C)[C@@H]([C@H](C)CCCC(C)C)CC[C@@H]23)C[C@@H](O)C[C@@H]1O [1α-(OH)D3, 1α-hydroxyvitamin D3]
antileukemic activity (leukemia cells): potent antileukemic activity

CC1=C(/C=C\C2=CCC[C@]3(C)[C@@H]([C@H](C)/C=C/[C@H](C)C(C)C)CC[C@@H]23)C[C@@H](O)C[C@@H]1O [1α-(OH)preD2, 1α-hydroxyprevitamin D2]
half-life [3]: 774 min

CC/C(=C(/CC)c1ccc(O)cc1)c1ccc(O)cc1 [diethylstilbestrol]
cardiovascular profile (luteinizing hormone (LH); in vivo): poor cardiovascular profile
inhibition of the release of luteinizing hormone from the pituitary gland (luteinizing hormone (LH); in vivo): potent inhibitors of the release from the pituitary gland of luteinizing hormone
dose achieving maximum suppression of plasma testosterone (luteinizing hormone (LH); men): 3 mg/day
